{"source": "patent US11291739B2", "about": "“System and methods for sterilizing enclosed spaces using ozone” (Gene Therapy Systems, Inc., priority 2015, dated 2022)", "key": {"[1]": {"tested_on": "E. coli K-12 cells (strain DH5)", "assay": "Sterilization efficacy on LB agar plates loaded with E. coli in cell culture chamber", "assay_type": "cell-based", "protocol": "In tests #2 and #3, represented by lines 520 and 530, respectively, both the ozone generator and an ozone degrader were present in the cell culture chamber. The ozone degrader was formed of three activated carbon filters. With the ozone degrader present, the ozone generator was unable to achieve the peak ozone concentration seen in test #1. In tests #2 and #3, the ozone generator was run for 120 minutes and the concentration of ozone noticeably plateaued. The air within the cell culture chamber reached a peak ozone concentration of approximately 140-150 ppm ozone. After the ozone generator was turned off, the ozone began to break down at an accelerated rate with the activated carbon filters present. In both tests #2 and #3, the ozone levels reached a level of 0.01 ppm ozone within 15 minutes.\nWhile the peak ozone concentrations reached in tests #2 and #3 were noticeably lower than the peak ozone concentration of test #1, the ozone levels in tests #2 and #3 were at least sufficient to achieve sterilization. In each of tests #2 and #3, sterilization efficacy was measured with the assistance of LB agar plates loaded with E. coli bacteria. As part of the experiment, E. coli K-12 cells (strain DH5) were grown overnight at 37° C. and the stationary phase was reached. […] The quantity of E. coli present was then analyzed and a photograph of each plate was taken."}, "bacteriophage T1": {"tested_on": "bacteriophage T1", "assay": "Effect of ozone on bacteriophage T1 spotted on LB agar plates", "assay_type": "cell-based", "conditions": "ozone 4 hours, peak less than 150 ppm, silver-coated mesh generator; 10^6-10^9 pfu/mL spots; DH5 E. coli overlay, 72 hours", "protocol": "In Experiment 2, the effect of ozone on bacteriophage T1 was studied. In the experiment, 2.5 μL of purified bacteriophage T1 was spotted in four quadrants of two LB agar plates—a test plate 610 and a control plate 620, shown in FIG. 11. The bacteriophage concentrations on each of the two plates were (clockwise from the spot in the upper right quadrant): 10^9 pfu/mL, 10^8 pfu/mL, 10^7 pfu/mL, and 10^6 pfu/mL.\nThe test plate 610 was placed in an incubator chamber containing both an ozone generator and an ozone degrader. The ozone generator included two ceramic plates surrounded substantially by a silver-coated metal mesh. The ozone generator was activated and the test plate 610 was treated with ozone for 4 hours. The ozone generator was then turned off, and the ozone degrader, formed of activated carbon filters, accelerated the conversion of ozone to oxygen. The peak ozone concentration level generated within the incubator chamber was less than 150 ppm ozone.\nThe control plate 620 was placed in a different incubator chamber and left untreated. After the ozone generation and degradation cycle completed in the incubator chamber containing the test plate 610, 1 mL of stationary DH5 E. coli bacteria and top agar were added to each plate and incubated at room temperature for 72 hours. The photograph in FIG. 11 was taken immediately following this 72-hour period."}, "[2]": {"assay": "Ozone breakdown over time in enclosed cell culture chamber (calibrated ozone analyzer)", "assay_type": "physicochemical", "protocol": "In Experiment 1, an 1800 mg/hour ozone generator was placed in a 5.5 cubic feet cell culture. The ozone level within the chamber was monitored using a calibrated ozone analyzer. Ozone measurements were captured every 10 seconds. The experimental results, as represented by ozone level over time, are provided in the line graph of FIG. 10A. In test #1, represented by line 510, the ozone generator was run for 80 minutes and achieved a peak ozone concentration within the cell culture chamber of approximately 325 ppm. After the ozone generator was turned off, the ozone was left to break down naturally within the enclosed cell culture chamber. It took approximately 28 hours for the ozone to breakdown to 0.01 ppm ozone.\nIn tests #2 and #3, represented by lines 520 and 530, respectively, both the ozone generator and an ozone degrader were present in the cell culture chamber. The ozone degrader was formed of three activated carbon filters. With the ozone degrader present, the ozone generator was unable to achieve the peak ozone concentration seen in test #1. In tests #2 and #3, the ozone generator was run for 120 minutes and the concentration of ozone noticeably plateaued. The air within the cell culture chamber reached a peak ozone concentration of approximately 140-150 ppm ozone. […]"}, "[3]": {"conditions": "cited from earlier work"}}, "note": "Read-outs that look alike come from different tables or passages of the source."}
{"smiles": "O=[O+][O-]", "note": "[ozone]", "values": [{"measurement": "E. coli kill rate", "setting": "[1]; test #2, ozone 120 minutes, peak approximately 140-150 ppm, then 15 minutes degradation, plates incubated at 37° C. overnight", "value": 100, "unit": "%"}, {"measurement": "quantity of E. coli present after treatment", "setting": "[1]; test #2 test dish, control dish showed confluent growth", "value": "no E. coli was detected"}, {"measurement": "survival of the T1-phage", "setting": "bacteriophage T1", "value": "negligible survival"}, {"measurement": "time for ozone to break down to 0.01 ppm", "setting": "[2]; test #1, natural breakdown from approximately 325 ppm, no ozone degrader, 5.5 cubic feet chamber", "value": "approximately 28 hours"}, {"measurement": "time for ozone levels to reach 0.01 ppm", "setting": "[2]; tests #2 and #3, from approximately 140-150 ppm, three activated carbon filters present", "value": "≤ 15", "unit": "min"}, {"measurement": "half-life", "setting": "[3]; in the air", "value": "36 to 72", "unit": "h"}, {"measurement": "half-life", "setting": "[3]; in water", "value": "0.13 to 0.5", "unit": "h"}]}
